Laboratory results reported in US20030120049A1, “Non-selective cation channel” (priority 2000, published 2003).
Values belong to the molecule of their own block, whether it stands above or below them.

Columns and labels:
[1] = biological target: T1, OTRPC4 (Mus musculus, UniProt Q9EPK8); test: FURA-2 measurement of intracellular Ca2+ with luminiscence spectrometer in OTRPC4 transfected HEK293 cells; type: cell-based, murine; details: 100 μM; osmolarity lowered from 320 mosmol/l to 220 mosmol/l
T1 construct: expressed in transfected cells; host or cells: HEK293 (transient, FuGENE 6)
Experimental: For testing the function of OTRPC4 transfected HEK293 cells with a further method, intracellular Ca^2+ concentration was measured with FURA-2. The experiments were conducted with luminiscence spectrometer (LS 50 B, Perkin Elmer).
For determining the extent of calcium influx into the cells, maximal intracellular Ca^2+ was induced by lonomycin. This [Ca^2+]i could be reverted to its original value by EGTA. Influx of extracellular calcium via OTRPC4 was demostrated by showing change of the intracellular Ca^2+ concentration by lowering osmolarity by 100 mosmol/l (from 320 mosmol/l to 220 mosmol/l). The hypotonic solution led to an increase in [Ca^2+]i which could be quenched by EGTA. Half of the [Ca^2+] increasing effect of hypotonic solution could be blocked by addition of LOE908 (Embaco A, Romanin C, Birke F W, Kukovetz W R, Groschner K: Inhibition of a store-operated Ca2+ entry pathway in human endothelial cells by the isoquinoline derivative LOE 908. British Journal of Pharmacology (1996) 119 702-706) (100 μM) (FIG. 10).

[2] = biological target: T1, OTRPC4; test: Perforated patch measurement of cation currents triggered by hypotonic solution in OTRPC4-expressing cells; type: cell-based, murine; details: 50 μM
Experimental: (§1) Because of the rapid “run-down” of the ion fluxes, the other experiments were carried out using the so-called perforated patch method. Measured in standard extracellular solution, the current-voltage curve, measured by applying voltage ramps, show an outwardly rectifying form with a reverse potential of about 0 mV (FIG. 6). When the Na^+- and Ca^2+-ions were removed from the extracellular solution, the inward flux disappeared and the reverse potential moved into the negative area. The average ion fluxes at −100 and +100 mV measured with the aid of ramp protocols were −12.8±1.1 and +32.2±2.7 pA/pF, respectively (n=17, Cm=9.6±5.5 pF).
(§2) Replacing the extracellular standard solution with a solution which contained 100 mM NaCl and 100 mM mannitol (osmolarity: 320 mosmol/l) shifted Er to a more negative potential (−11.2±1.6 mV, n=14), as might be expected from a current carried by cations when the extracellular sodium concentration is reduced (see FIG. 6). Moreover, the inwardly and outwardly directed current components were reduced (−7.0±0.8 and 22.7±2.7 pA/pF at −100 and 100 mV, respectively) (see FIG. 6). The use of a hypoosmolar solution (215 mosmol/l) led, after a delay of a few seconds (about 18 seconds on average) to an increase in both the inwardly and outwardly directed currents (FIG. 7). This increase reached its maximum after 50 seconds, on average. […]

[3] = test system: chloride channels activated by a change in volume; test: Perforated patch measurement of currents triggered by hypotonic extracellular solution in control cells; type: cell-based; details: 50 μM
Experimental: as §1, §2

[4] = biological target: T1, OTRPC4; test: FURA-2 single cell measurement of intracellular calcium in HEK293 cells transiently expressing OTRPC4-GFP; type: cell-based, murine; details: for effect on cells which expressed OTRPC4: 10 μM
Excerpt: The cDNA of OTRPC4 was cloned into a eukaryotic expression plasmid containing, at the C-terminal end, a green fluorescent protein (GFP) fusion section (pEGFP-N1). This plasmid was used for the subsequent expression studies. It can be inferred from the nucleotide sequence that the OTRPC4 protein may consist of 871 amino acids, for example, and contains 6 possible transmembranal segments with a sequence between segments 5 and 6 which possibly codes for a pore region of a channel (FIG. 1a). After transient transfection (which was carried out using the FuGENE 6 transfection reagent) of the expression plasmid coding for the OTRPC4-GFP fusion protein in HEK293 cells, dots of fluorescence could be detected in the plasma membrane 24-36 hours later. […] For the following experiments, HEK293 cells were transiently transfected with the above-mentioned expression plasmid containing OTRPC4 and compared, after 24-36 hours, with untransfected control cells.
The influence of extracellular osmolarity on the channel activity of OTRPC4 was investigated. After reducing the osmolarity of the extracellular solution, there was a long, transient and reversible increase in the [Ca^2+]i in the OTRPC4 expressing cells but not in the control cells (FIG. 5). Increasing the osmolarity of the extracellular solution, on the other hand, reduced the [Ca^2+]i (cf. the small diagram in FIG. 4). A significant change in the [Ca^2+]i was observed even when the extracellular solution was changed by 30 mosmol/l. The changes in [Ca^2+]i triggered by changing the osmolarity of the extracellular solution occurred rapidly and reached a peak after about 30 seconds, but varied from cell to cell (see FIG. 4). After returning to the normoosmolar solution, [Ca^2+]i rapidly returned to its base value. In order to distinguish between an influx of calcium from the extracellular medium and a release of calcium from intracellular calcium stores, calcium was replaced by EGTA in the extracellular medium while the cells were exposed to a hypotonic medium. Under these conditions, the FURA-2 signal returned to the base value (see FIG. 4).
The members of the STRPC subfamily of the TRPC channels are activated by signals produced by the activation of the phospholipase C-β (PCL-β) (6-15).
The addition of capsaicin (10 μM) and resiniferatoxin (10 μM) as well as a brief increase in the temperature to 65° C. had no effect on cells which expressed OTRPC4.

T1 sequence (Q9EPK8 whole entry): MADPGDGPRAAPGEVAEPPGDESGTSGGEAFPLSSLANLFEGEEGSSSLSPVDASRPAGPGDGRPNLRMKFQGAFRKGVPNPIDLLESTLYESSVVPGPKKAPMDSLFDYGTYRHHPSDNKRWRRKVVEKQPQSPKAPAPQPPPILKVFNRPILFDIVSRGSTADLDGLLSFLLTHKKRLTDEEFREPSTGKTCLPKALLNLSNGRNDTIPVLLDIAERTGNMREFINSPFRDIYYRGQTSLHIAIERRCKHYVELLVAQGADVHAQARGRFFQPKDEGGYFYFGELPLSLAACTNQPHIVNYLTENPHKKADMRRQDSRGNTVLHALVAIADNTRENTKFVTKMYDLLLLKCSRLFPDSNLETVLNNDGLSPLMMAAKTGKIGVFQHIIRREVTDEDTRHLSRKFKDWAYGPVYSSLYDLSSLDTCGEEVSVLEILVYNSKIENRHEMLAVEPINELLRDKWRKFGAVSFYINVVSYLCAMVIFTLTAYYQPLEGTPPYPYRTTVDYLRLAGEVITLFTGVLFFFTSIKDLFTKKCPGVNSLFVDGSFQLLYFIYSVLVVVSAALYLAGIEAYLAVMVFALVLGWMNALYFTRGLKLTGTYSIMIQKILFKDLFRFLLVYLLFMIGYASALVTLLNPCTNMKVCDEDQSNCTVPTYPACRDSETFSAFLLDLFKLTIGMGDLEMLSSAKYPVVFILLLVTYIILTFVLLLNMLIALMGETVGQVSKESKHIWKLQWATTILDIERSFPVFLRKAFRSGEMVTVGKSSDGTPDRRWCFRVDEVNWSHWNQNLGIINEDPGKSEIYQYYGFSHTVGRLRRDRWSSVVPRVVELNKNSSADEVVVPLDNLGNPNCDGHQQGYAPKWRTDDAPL

Compound: COc1cc2c(cc1OC)C(C(C(=O)N(CCc1ccc(OC)c(OC)c1OC)CCc1ccc(OC)c(OC)c1OC)c1ccccc1)=NCC2 (centres unmarked) [LOE908]
block of the [Ca2+] increasing effect of hypotonic solution [1]: Half

Compound: O=C(O)c1cc([N+](=O)[O-])ccc1NCCCc1ccccc1 [NPPB]
cation currents in OTRPC4-expressing cells triggered by hypotonic solution [2]: unaffected
activation of currents triggered by hypotonic extracellular solution in control cells [3]: inhibited completely

Compound: [Cl][La]([Cl])[Cl] [LaCl3]
inhibition of the influx of calcium into OTRPC4-expression cells triggered by hypoosmolarity ([4]; 100 μM, HEK293 cells expressing OTRPC4): about 50%

Compound: C/C=C(/C)C(=O)O[C@H]1C(C)=C2[C@H]([C@@H]1OC(=O)CCCCCCC)[C@@](C)(OC(C)=O)C[C@H](OC(=O)CCC)[C@@]1(O)[C@H]2OC(=O)[C@@]1(C)O [thapsigargin]
amplitude of the FURA-2 signal triggered by the hypotonic medium after emptying the intracellular stores ([4]; 5 μM, added previously, OTRPC4-expressing cells): did not alter the amplitude

Compound: C=C(C)[C@]12C[C@@H](C)[C@@]34O[C@](Cc5ccccc5)(O[C@@H]1[C@@H]3C=C(COC(=O)Cc1ccc(O)c(OC)c1)C[C@]1(O)C(=O)C(C)=C[C@@H]41)O2 [resiniferatoxin]
effect on cells which expressed OTRPC4 [4]: no effect

effect on cells which expressed OTRPC4 [4]: no effect
Compound: COc1cc(CNC(=O)CCCC/C=C/C(C)C)ccc1O [capsaicin]

Compound: [Cl][Gd]([Cl])[Cl] [GdCl3]
effect on the influx of calcium into OTRPC4-expression cells triggered by hypoosmolarity ([4]; 1 mM, HEK293 cells expressing OTRPC4): no effect
